Experimental data as given in ChEMBL document CHEMBL1137000, “Synthesis and antibacterial activity of some novel imidazole-based dicationic quinolinophanes” (2009).
≈ marks a conversion by molar mass, not a printed value.

Experiments:
Format in all cases: functional
Staphylococcus aureus = assay: Antibacterial activity against Staphylococcus aureus after 48 hrs by agar well diffusion method
Pseudomonas aeruginosa = assay: Antibacterial activity against Pseudomonas aeruginosa after 48 hrs by agar well diffusion method
Klebsiella pneumoniae = assay: Antibacterial activity against Klebsiella pneumoniae after 48 hrs by agar well diffusion method
Escherichia coli = assay: Antibacterial activity against Escherichia coli after 48 hrs by agar well diffusion method
Vibrio cholerae = assay: Antibacterial activity against Vibrio cholerae after 48 hrs by agar well diffusion method
Shigella sp. = assay: Antibacterial activity against Shigella sp. after 48 hrs by agar well diffusion method

SMILES | MIC (Staphylococcus aureus) | MIC (Pseudomonas aeruginosa) | MIC (Klebsiella pneumoniae) | MIC (Escherichia coli) | MIC (Vibrio cholerae) | MIC (Shigella sp.)
[Br-].[Br-].c1cc2nc(c1)C[n+]1ccn(c1)Cc1cc3ccccc3nc1Oc1ccccc1Oc1nc3ccccc3cc1Cn1cc[n+](c1)C2 | 30 µg/mL | 25 µg/mL | 25 µg/mL | 20 µg/mL | 15 µg/mL | 25 µg/mL
[Br-].[Br-].c1cc2cc(c1)C[n+]1cn(c3ccccc31)Cc1cc3ccccc3nc1Oc1ccc3ccccc3c1-c1c(ccc3ccccc13)Oc1nc3ccccc3cc1Cn1c[n+](c3ccccc31)C2 | 15 µg/mL | 25 µg/mL | 15 µg/mL | 15 µg/mL | 10 µg/mL | 10 µg/mL
[Br-].[Br-].c1cc2nc(c1)C[n+]1ccn(c1)Cc1cc3ccccc3nc1Oc1ccc3ccccc3c1-c1c(ccc3ccccc13)Oc1nc3ccccc3cc1Cn1cc[n+](c1)C2 | 15 µg/mL | 20 µg/mL | 15 µg/mL | 10 µg/mL | 10 µg/mL | 10 µg/mL
[Br-].[Br-].c1cc2cc(c1)C[n+]1ccn(c1)Cc1cc3ccccc3nc1Oc1ccc3ccccc3c1-c1c(ccc3ccccc13)Oc1nc3ccccc3cc1Cn1cc[n+](c1)C2 | 15 µg/mL | 25 µg/mL | 10 µg/mL | 20 µg/mL | 10 µg/mL | 15 µg/mL
[Br-].[Br-].c1cc2nc(c1)C[n+]1cn(c3ccccc31)Cc1cc3ccccc3nc1Oc1ccc3ccccc3c1-c1c(ccc3ccccc13)Oc1nc3ccccc3cc1Cn1c[n+](c3ccccc31)C2 | 45 µg/mL | 20 µg/mL | 30 µg/mL | 30 µg/mL | 45 µg/mL | 45 µg/mL
[Br-].[Br-].c1cc2cc(c1)C[n+]1ccn(c1)Cc1cc3ccccc3nc1Oc1ccccc1Oc1nc3ccccc3cc1Cn1cc[n+](c1)C2 | 45 µg/mL | 30 µg/mL | 40 µg/mL | 30 µg/mL | 35 µg/mL | 45 µg/mL
[Br-].[Br-].c1cc2nc(c1)C[n+]1cn(c3ccccc31)Cc1cc3ccccc3nc1Oc1ccccc1Oc1nc3ccccc3cc1Cn1c[n+](c3ccccc31)C2 | 35 µg/mL | 25 µg/mL | 45 µg/mL | 35 µg/mL | 30 µg/mL | 40 µg/mL
CN[C@@H]1[C@H](O[C@H]2[C@H](O[C@H]3[C@H](O)[C@@H](O)[C@H](N=C(N)N)[C@@H](O)[C@@H]3N=C(N)N)O[C@@H](C)[C@]2(O)C=O)O[C@@H](CO)[C@H](O)[C@H]1O [STREPTOMYCIN] | 25 µg/mL (≈ 43 µM) | 45 µg/mL (≈ 77.4 µM) | 25 µg/mL (≈ 43 µM) | 20 µg/mL (≈ 34.4 µM) | 25 µg/mL (≈ 43 µM) | 25 µg/mL (≈ 43 µM)
[Br-].[Br-].c1cc2cc(c1)C[n+]1cn(c3ccccc31)Cc1cc3ccccc3nc1Oc1ccccc1Oc1nc3ccccc3cc1Cn1c[n+](c3ccccc31)C2 | 45 µg/mL | 40 µg/mL | 60 µg/mL | 30 µg/mL | 25 µg/mL | 55 µg/mL
